Measured values: ChEMBL document CHEMBL5108016, “Design, synthesis and neurite outgrowth activity of novel ganglioside GM1 derivatives by remodeling of the fatty acid moiety” (Eur J Med Chem, 2022)
Active and inactive are the calls of the source. The calls are words filed in the database; no cut-off is given here.

Legend:
N2a [1] = test: Induction of neurite outgrowth in mouse Neuro2a cells assessed as increase in GAP43 protein expression at 25 uM incubated for 24 hrs by immunoblotting analysis; type: functional, cell-based
N2a [2] = test: Upregulation of HMGCS mRNA expression in mouse Neuro2a cells by qRT-PCR analysis; type: functional, cell-based
N2a [3] = test: Upregulation of FDPS gene expression in mouse Neuro2a cells by STRING analysis; type: functional, cell-based
N2a [4] = test: Upregulation of HMGCS1 protein expression in mouse Neuro2a cells by parallel reaction monitoring analysis; type: functional, cell-based
N2a [5] = test: Upregulation of DHCR7 protein expression in mouse Neuro2a cells by parallel reaction monitoring analysis; type: functional, cell-based
N2a [6] = test: Upregulation of LSS protein expression in mouse Neuro2a cells by parallel reaction monitoring analysis; type: functional, cell-based
N2a [7] = test: Upregulation of DHCR7 mRNA expression in mouse Neuro2a cells by qRT-PCR analysis; type: functional, cell-based
N2a [8] = test: Upregulation of FDPS protein expression in mouse Neuro2a cells by parallel reaction monitoring analysis; type: functional, cell-based
N2a [9] = test: Upregulation of ID11 mRNA expression in mouse Neuro2a cells by qRT-PCR analysis; type: functional, cell-based
N2a [10] = test: Internalization of ERBB4 in mouse Neuro2a cells assessed as retention of ERBB4 level in lipids raft of cells by immunoblot analysis; type: functional, cell-based
Cortical neurone [11] = test: Induction of neurite outgrowth in C57BL/6 mouse Primary cortical neuron assessed as increase in total neurite length at 25 uM incubated for 24 hrs (reference value: 58.3 +/- 8.68 […]); type: functional
N2a [12] = test: Upregulation of CYP51 protein expression in mouse Neuro2a cells by parallel reaction monitoring analysis; type: functional, cell-based
N2a [13] = test: Upregulation of LSS gene expression in mouse Neuro2a cells by STRING analysis; type: functional, cell-based
[14] = biological target: T1, Sterol regulatory element-binding protein 2 (Mus musculus) (UniProt Q3U1N2); test: Activation of SREBP2 in mouse Neuro2a cells assessed as increase in mTOR protein expression by immunoblot analysis; type: cell-based; conditions: filed as activator
T1 sequence (whole entry): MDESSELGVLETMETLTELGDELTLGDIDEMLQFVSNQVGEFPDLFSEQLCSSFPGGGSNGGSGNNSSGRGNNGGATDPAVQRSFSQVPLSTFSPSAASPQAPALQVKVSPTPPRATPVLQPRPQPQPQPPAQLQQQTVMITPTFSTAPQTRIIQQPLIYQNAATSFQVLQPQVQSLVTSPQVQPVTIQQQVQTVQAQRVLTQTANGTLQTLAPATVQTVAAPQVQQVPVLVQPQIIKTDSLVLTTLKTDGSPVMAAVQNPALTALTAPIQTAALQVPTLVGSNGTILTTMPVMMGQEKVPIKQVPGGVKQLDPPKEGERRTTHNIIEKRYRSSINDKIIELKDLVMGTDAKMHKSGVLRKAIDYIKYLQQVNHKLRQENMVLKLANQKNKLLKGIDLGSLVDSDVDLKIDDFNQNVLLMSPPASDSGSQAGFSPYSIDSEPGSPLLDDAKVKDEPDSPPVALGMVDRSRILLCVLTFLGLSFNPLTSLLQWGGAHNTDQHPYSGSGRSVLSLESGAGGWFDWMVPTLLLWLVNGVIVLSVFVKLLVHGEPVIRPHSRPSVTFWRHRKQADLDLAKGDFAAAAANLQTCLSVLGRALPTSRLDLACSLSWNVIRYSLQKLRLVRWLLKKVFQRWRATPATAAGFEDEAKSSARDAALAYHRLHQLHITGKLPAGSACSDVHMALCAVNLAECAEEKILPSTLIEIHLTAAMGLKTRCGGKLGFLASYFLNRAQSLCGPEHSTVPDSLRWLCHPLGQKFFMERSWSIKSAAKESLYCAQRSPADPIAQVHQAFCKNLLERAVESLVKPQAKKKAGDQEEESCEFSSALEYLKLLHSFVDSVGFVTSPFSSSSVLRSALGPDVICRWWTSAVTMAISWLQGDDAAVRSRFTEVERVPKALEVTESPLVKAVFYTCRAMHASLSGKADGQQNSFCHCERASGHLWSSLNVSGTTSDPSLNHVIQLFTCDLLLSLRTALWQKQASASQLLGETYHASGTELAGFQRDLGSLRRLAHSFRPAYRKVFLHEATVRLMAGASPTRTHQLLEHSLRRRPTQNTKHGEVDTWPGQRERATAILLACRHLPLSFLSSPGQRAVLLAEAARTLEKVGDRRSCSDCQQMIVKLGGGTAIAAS

N2a [15] = test: Upregulation of HMGCR protein expression in mouse Neuro2a cells by parallel reaction monitoring analysis; type: functional, cell-based
N2a [16] = test: Upregulation of NSDHL protein expression in mouse Neuro2a cells by parallel reaction monitoring analysis; type: functional, cell-based
N2a [17] = test: Upregulation of MVD mRNA expression in mouse Neuro2a cells by qRT-PCR analysis; type: functional, cell-based
N2a [18] = test: Upregulation of FDPS mRNA expression in mouse Neuro2a cells by qRT-PCR analysis; type: functional, cell-based
N2a [19] = test: Upregulation of HMGCS1 gene expression in mouse Neuro2a cells by STRING analysis; type: functional, cell-based
N2a [20] = test: Upregulation of MVK mRNA expression in mouse Neuro2a cells by qRT-PCR analysis; type: functional, cell-based
N2a [21] = test: Induction of cholesterol biosynthesis in mouse Neuro2a cells assessed as increase in total cholesteryl level; type: functional, cell-based
N2a [22] = test: Upregulation of CYP51 gene expression in mouse Neuro2a cells by STRING analysis; type: functional, cell-based
N2a [23] = test: Upregulation of FDF1 mRNA expression in mouse Neuro2a cells by qRT-PCR analysis; type: functional, cell-based
[24] = biological target: T1, Sterol regulatory element-binding protein 2 (Mus musculus); test: Activation of SREBP2 in mouse Neuro2a cells assessed as increase in phosphorylated ERBB4 protein expression by immunoblot analysis; type: cell-based; conditions: filed as activator
N2a [25] = test: Upregulation of NSDHL gene expression in mouse Neuro2a cells by STRING analysis; type: functional, cell-based
Cortical neurone [26] = test: Induction of neurite outgrowth in C57BL/6 mouse Primary cortical neuron assessed as change in neurite number per cell at 25 uM incubated for 24 hrs; type: functional, cell-based
N2a [27] = test: Upregulation of LSS mRNA expression in mouse Neuro2a cells by qRT-PCR analysis; type: functional, cell-based
[28] = Cytotoxicity against mouse Neuro2a cells assessed as inhibition of cell growth incubated for 24 hrs by MTT assay; type: toxicity, cell-based, N2a
N2a [29] = test: Upregulation of MVD gene expression in mouse Neuro2a cells by STRING analysis; type: functional, cell-based
N2a [30] = test: Induction of cholesterol biosynthesis in mouse Neuro2a cells assessed as increase in total cholesterol level; type: functional, cell-based
N2a [31] = test: Upregulation of NSDHL mRNA expression in mouse Neuro2a cells by qRT-PCR analysis; type: functional, cell-based
N2a [32] = test: Upregulation of SQLE mRNA expression in mouse Neuro2a cells by qRT-PCR analysis; type: functional, cell-based
N2a [33] = test: Upregulation of PMVK mRNA expression in mouse Neuro2a cells by qRT-PCR analysis; type: functional, cell-based
N2a [34] = test: Upregulation of ACAT2 gene expression in mouse Neuro2a cells by STRING analysis; type: functional, cell-based
N2a [35] = test: Upregulation of CYP51 mRNA expression in mouse Neuro2a cells by qRT-PCR analysis; type: functional, cell-based
N2a [36] = test: Upregulation of SREBP2 mRNA expression in mouse Neuro2a cells by qRT-PCR analysis; type: functional, cell-based
N2a [37] = test: Upregulation of FDFT1 gene expression in mouse Neuro2a cells by STRING analysis; type: functional, cell-based
N2a [38] = test: Upregulation of HMGCR mRNA expression in mouse Neuro2a cells by qRT-PCR analysis; type: functional, cell-based
[39] = biological target: T1, Sterol regulatory element-binding protein 2 (Mus musculus); test: Activation of SREBP2 in mouse Neuro2a cells assessed as increase in ERBB4 protein expression by immunoblot analysis; type: cell-based; conditions: filed as activator
N2a [40] = test: Upregulation of phosphorylated TrkA expression in mouse Neuro2a cells by immunoblot analysis; type: functional, cell-based
N2a [41] = test: Upregulation of SREBP2 gene expression in mouse Neuro2a cells by STRING analysis; type: functional, cell-based

SMILES: CCCCCCCCCCCCC/C=C/[C@@H](O)[C@H](CO[C@@H]1O[C@H](CO)[C@@H](O[C@@H]2O[C@H](CO)[C@H](O[C@@H]3O[C@H](CO)[C@H](O)[C@H](O[C@@H]4O[C@H](CO)[C@H](O)[C@H](O)[C@H]4O)[C@H]3NC(C)=O)[C@H](O[C@]3(C(=O)O)C[C@H](O)[C@@H](NC(C)=O)[C@@H]([C@@H](O)[C@H](O)CO)O3)[C@H]2O)[C@H](O)[C@H]1O)NC(=O)CCCCCCCCCCCCCCCCC
- Activity (N2a [1]): Active
- Activity (N2a [2]): Active
- Activity (N2a [3]): Active
- Activity (N2a [4]): Active
- Activity (N2a [5]): Active
- Activity (N2a [6]): Active
- Activity (N2a [7]): Active
- Activity (N2a [8]): Active
- Activity (N2a [9]): Active
- Activity (N2a [10]): Active
- Activity (Cortical neurone [11]): 80.1 um
- Activity (N2a [12]): Active
- Activity (N2a [13]): Active
- Activity [14]: Active
- Activity (N2a [15]): Active
- Activity (N2a [16]): Active
- Activity (N2a [17]): Active
- Activity (N2a [18]): Active
- Activity (N2a [19]): Active
- Activity (N2a [20]): Active
- Activity (N2a [21]): Active
- Activity (N2a [22]): Active
- Activity (N2a [23]): Active
- Activity [24]: Active
- Activity (N2a [25]): Active
- Activity (Cortical neurone [26]): Active
- Activity (N2a [27]): Active
- IC50 at 24 h [28]: > 200 µM
- Activity (N2a [29]): Active
- Activity (N2a [30]): Active
- Activity (N2a [31]): Active
- Activity (N2a [32]): Active
- Activity (N2a [33]): Active
- Activity (N2a [34]): Active
- Activity (N2a [35]): Active
- Activity (N2a [36]): Active
- Activity (N2a [37]): Active
- Activity (N2a [38]): Active
- Activity [39]: Active
- Activity (N2a [40]): Active
- Activity (N2a [41]): Active
